# From patent US10975037B2 (priority 2018, dated 2021)
# Like-named read-outs stand apart in the source and are kept apart here.
# Assays:
# [1] = molecular target: human RORγt ligand binding domain (RORγt LBD) (Homo sapiens (Human), UniProt P51449); experiment: RORγt ThermoFluor® assay (thermal shift binding)
# In short: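 Thermal shift with 0.065 mg/mL RORγt LBD and 60 μM 1,8-ANS in 100 mM Hepes pH 7.0, 10 mM NaCl, 2.5 mM GSH, 0.002% Tween-20.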
# [2] = molecular target: full-length human RORγt (Homo sapiens (Human), UniProt P51449); experiment: RORγt (full-length human) reporter assay, conditions A or B, HEK293T cells; type: cell-based; conditions: for IC50: RORγt (FL) Reporter Assay A or B, IC50, HEK293T cells
# In short: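 After 16–20 h, dual firefly/Renilla luciferase luminescence was read. Firefly signal was normalized to DMSO and saturating reference compound, then to Renilla, and fitted for IC50; % inhibition is versus DMSO.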
# [3] = tested on: IL-17 production by CD4 T cells under conditions which favor Th17 differentiation; experiment: Human Th17 assay (IL-17 production by CD4 T cells); type: cell-based
# Description: The human Th17 assay tests the effect of RORγt modulatory compounds on IL-17 production by CD4 T cells under conditions which favor Th17 differentiation. Total CD4^+ T cells were isolated from the peripheral blood mononuclear cells (PBMC) of healthy donors using a CD4^+ T cell isolation kit II, following the manufacturer's instructions (Miltenyi Biotec). […] 50 μL of compound at titrated concentrations in DMSO were added into each well at final DMSO concentration at 0.2%. Cells were incubated for 1 hour, then 50 μL of Th17 cell differentiation medium was added to each well. […] Cells were cultured at 37° C. and 5% CO2 for 3 days. Supernatants were collected and the accumulated IL-17 in culture was measured by using MULTI-SPOT® Cytokine Plate following manufacture's instruction (Meso Scale Discovery). The plate was read using Sector Imager 6000, and IL-17 concentration was extrapolated from the standard curve. The IC50s were determined by GraphPad.
# [4] = read-out: ThermoFluor® Assay, Kd
# [5] = HEK-293T, read-out: RORγt (FL) Reporter Assay A or B, % inhibition
# [6] = Homo sapiens, CD4+ T; read-out: Human Th17 Assay, IC50
# [7] = HEK-293T, 0.67 μM compound concentration (footnote ****), read-out: RORγt (FL) Reporter Assay A or B, % inhibition
# full-length human RORγt, sequence (P51449 other isoform, or with tags, fused parts or gaps): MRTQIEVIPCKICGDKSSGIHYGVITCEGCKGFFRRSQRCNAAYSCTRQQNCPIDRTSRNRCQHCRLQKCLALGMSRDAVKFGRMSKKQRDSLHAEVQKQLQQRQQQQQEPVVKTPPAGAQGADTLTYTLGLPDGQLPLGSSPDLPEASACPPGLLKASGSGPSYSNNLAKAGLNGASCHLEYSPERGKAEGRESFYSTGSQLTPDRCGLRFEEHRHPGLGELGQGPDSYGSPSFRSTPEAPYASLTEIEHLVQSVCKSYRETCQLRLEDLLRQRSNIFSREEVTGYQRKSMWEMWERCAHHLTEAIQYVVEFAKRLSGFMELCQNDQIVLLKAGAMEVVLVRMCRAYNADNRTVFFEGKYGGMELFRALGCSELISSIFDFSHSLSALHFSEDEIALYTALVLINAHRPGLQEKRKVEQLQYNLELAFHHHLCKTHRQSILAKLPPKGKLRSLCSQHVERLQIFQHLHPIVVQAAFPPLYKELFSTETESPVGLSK
# human RORγt ligand binding domain (RORγt LBD), sequence (P51449 other isoform, or with tags, fused parts or gaps): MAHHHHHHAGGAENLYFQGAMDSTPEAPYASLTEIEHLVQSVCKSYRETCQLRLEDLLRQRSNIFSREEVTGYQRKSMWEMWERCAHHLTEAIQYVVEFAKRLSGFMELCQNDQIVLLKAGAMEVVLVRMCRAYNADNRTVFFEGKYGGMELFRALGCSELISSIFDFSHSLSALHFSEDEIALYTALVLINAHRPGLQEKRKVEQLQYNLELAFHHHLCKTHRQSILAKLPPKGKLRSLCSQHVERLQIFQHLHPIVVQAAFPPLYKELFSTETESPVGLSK
Compound,"Kd [1, 4] [nM]","inhibition at 2 µM [2, 5] [%]",IC50 [2] [nM],"IC50 [3, 6] [nM]","inhibition at 3 µM ([2]; HEK-293T, 3 μM compound concentration (footnote *), read-out: RORγt (FL) Reporter Assay A or B, % inhibition) [%]","inhibition at 0.67 µM [2, 7] [%]","inhibition at 0.67 µM [2, 5] [%]","Kd ([1]; ThermoFluor® Assay, Kd) [nM]","inhibition at 6 µM ([2]; HEK-293T, read-out: RORγt (FL) Reporter Assay A or B, % inhibition @ 6 μM, 6 μM compound concentration) [%]","IC50 ([3]; Homo sapiens, CD4+ T, read-out: Human Th17 Assay, IC50) [nM]"
"CCn1nc(C(=O)NC[C@]2(C#N)CC[C@@H](S(C)(=O)=O)CC2)c(Cl)c1-c1ccc(N[C@H](C)C(F)(F)F)cc1OC [Example 32, 4-Chloro-N-(((1s,4S)-1-cyano-4-(methylsulfonyl)cyclohexyl)methyl)-1-ethyl-5-(2-methoxy-4-(((R)-1,1,1-trifluoropropan-2-yl)amino)phenyl)-1H-pyrazole-3-carboxamide]",7.6,96,53,62,,,,,,
"CCn1nc(C(=O)NC[C@]2(O)CC[C@@H](S(N)(=O)=O)CC2)c(Cl)c1-c1ccc(CC(C)(C)C(F)(F)F)cc1OC(F)F [Example 62, 4-Chloro-5-(2-(difluoromethoxy)-4-(3,3,3-trifluoro-2,2-dimethylpropyl)phenyl)-1-ethyl-N-(((1s,4s)-1-hydroxy-4-sulfamoylcyclohexyl)methyl)-1H-pyrazole-3-carboxamide]",0.78,,12,36,120,,,,,
"CCn1nc(C(=O)NC[C@]2(O)CC[C@@H](S(C)(=O)=O)CC2)c(C)c1-c1ccc(CCCC(F)(F)F)cc1OC(F)F [Example 79, 5-(2-(Difluoromethoxy)-4-(4,4,4-trifluorobutyl)phenyl)-1-ethyl-N-(((1s,4s)-1-hydroxy-4-(methylsulfonyl)cyclohexyl)methyl)-4-methyl-1H-pyrazole-3-carboxamide]",2,,8.7,58,,99,,,,
"CCn1nc(C(=O)NC[C@]2(O)CC[C@@H](S(C)(=O)=O)CC2)c(Cl)c1-c1ccc(CC(C(F)(F)F)C(F)(F)F)cc1OC [Example 85, 4-Chloro-1-ethyl-N-(((1s,4s)-1-hydroxy-4-(methylsulfonyl)cyclohexyl)methyl)-5-(2-methoxy-4-(3,3,3-trifluoro-2-(trifluoromethyl)propyl)phenyl)-1H-pyrazole-3-carboxamide]",0.43,,2.6,9.3,,103,,,,
"CCn1nc(C(=O)NC[C@]2(CO)CC[C@@H](S(C)(=O)=O)CC2)c(Cl)c1-c1ccc(CC(C)C(F)(F)F)cc1OC (stereo partly shown) [Example 92, 4-Chloro-1-ethyl-N-(((1s*,4s*)-1-(hydroxymethyl)-4-(methylsulfonyl)cyclohexyl)methyl)-5-(2-methoxy-4-(3,3,3-trifluoro-2-methylpropyl)phenyl)-1H-pyrazole-3-carboxamide]",39,,66,270,,,87,,,
"COc1cc(N[C@H](C)C(F)(F)F)ccc1-c1c(Cl)c(C(=O)NC[C@H]2CC[C@H](S(C)(=O)=O)CC2)nn1CCC#N [Example 129, 4-Chloro-1-(2-cyanoethyl)-5-(2-methoxy-4-(((R)-1,1,1-trifluoropropan-2-yl)amino)phenyl)-N-(((1r,4R)-4-(methylsulfonyl)cyclohexyl)methyl)-1H-pyrazole-3-carboxamide]",,,810,2300,,,,72,102,
"CCn1nc(C(=O)NC[C@]2(O)CC[C@@H](S(C)(=O)=O)CC2)c(Cl)c1-c1ccc(CC(C)(C)C(F)(F)F)cc1OC(F)F [Example 132, 4-Chloro-5-(2-(difluoromethoxy)-4-(3,3,3-trifluoro-2,2-dimethylpropyl)phenyl)-1-ethyl-N-(((1s,4s)-1-hydroxy-4-(methylsulfonyl)cyclohexyl)methyl)-1H-pyrazole-3-carboxamide]",0.45,99,8.1,,,,,,,6
